Test results reported in patent US20230263822A1, “MODULATION OF FACTOR 11 EXPRESSION” (Ionis Pharmaceuticals, Inc., priority 2008, published 2023).
Strand notation (5' to 3'): a small letter for the sugar, then the base; units joined by * are phosphorothioate-linked, units joined directly phosphodiester-linked; [ ] holds rarer units or linkages, { } end groups; capitals alone tell only the bases. e = 2'-O-(2-methoxyethyl) (MOE); [5mC] = 5-methylcytosine; d = 2'-deoxy (DNA)

Experiments:
Format in all cases: cell-based
human Factor 11 mRNA [1] = experiment: Antisense inhibition of human Factor 11 in HepG2 cells by microwalk gapmers, lipofectin, 75 nM (Example 3)
Method in brief: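 HepG2 cells (10,000/well) were transfected via lipofectin with 75 nM 20-mer MOE gapmers (phosphorothioate, 5-methyl-C) for about 24 h. Factor 11 mRNA was measured by qRT-PCR, normalized to RIBOGREEN total RNA, and given as percent inhibition versus untreated cells.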

human Factor 11 mRNA [2] = experiment: Dose-dependent inhibition of human Factor 11 in HepG2 cells, lipofectin 9.375-75 nM (Example 4); settings: for percent inhibition of Factor 11 at 9.375 nM / percent inhibition of Factor 11 at 18.75 nM / percent inhibition of Factor 11 at 37.5 nM / percent inhibition of Factor 11 at 75 nM: relative to untreated control cells
Method: (§1) Cells were plated at a density of 10,000 cells per well and transfected using lipofectin reagent with 9.375 nM, 18.75 nM, 37.5 nM and 75 nM concentrations of antisense oligonucleotide, as specified in Table 9. After a treatment period of approximately 16 hours, RNA was isolated from the cells and Factor 11 mRNA levels were measured by quantitative real-time PCR. Human Factor 11 primer probe set RTS 2966 was used to measure mRNA levels. Factor 11 mRNA levels were adjusted according to total RNA content, as measured by RIBOGREEN. Results are presented as percent inhibition of Factor 11, relative to untreated control cells.

human Factor 11 mRNA [3] = experiment: Dose-dependent inhibition of human Factor 11 in HepG2 cells, electroporation 0.7-20 uM (Example 4); settings: for percent inhibition of Factor 11 at 0.7 μM / percent inhibition of Factor 11 at 2.2 μM / percent inhibition of Factor 11 at 6.7 μM / percent inhibition of Factor 11 at 20 μM: relative to untreated control cells
Method: as §1, with “The gapmers were also transfected via electroporation and their dose dependent inhibition of human Factor 11 mRNA was measured. Cells” for “Cells”, “20,000” for “10,000”, “via electroporation” for “using lipofectin reagent”, “0.7 μM, 2.2 μM, 6.7 μM,” for “9.375 nM, 18.75 nM, 37.5 nM”, “20 μM” for “75 nM”, “10.” for “9.”

[4] = HepG2, lipofectin, ~24 h, gapmers targeted to nucleobases 656 to 704 of SEQ ID NO: 1
[5] = HepG2 cells, lipofectin, gapmers targeted to nucleobases 1275 to 1318 of SEQ ID NO: 1

416827 (antisense eT*eA*eT*eG*e[5mC]*d[5mC]*d[5mC]*dT*dT*d[5mC]*dA*dT*dG*dT*d[5mC]*eT*eA*eG*eG*eT) [compound 416827]
% inhibition (human Factor 11 mRNA [1]; [4]): 93% | IC50 (human Factor 11 mRNA [2]): 23 nM | percent inhibition of Factor 11 at 9.375 nM (human Factor 11 mRNA [2]): 31% | percent inhibition of Factor 11 at 18.75 nM (human Factor 11 mRNA [2]): 42% | percent inhibition of Factor 11 at 37.5 nM (human Factor 11 mRNA [2]): 62% | percent inhibition of Factor 11 at 75 nM (human Factor 11 mRNA [2]): 77% | IC50 (human Factor 11 mRNA [3]): 1100 nM | percent inhibition of Factor 11 at 0.7 μM (human Factor 11 mRNA [3]): 37% | percent inhibition of Factor 11 at 2.2 μM (human Factor 11 mRNA [3]): 68% | percent inhibition of Factor 11 at 6.7 μM (human Factor 11 mRNA [3]): 87% | percent inhibition of Factor 11 at 20 μM (human Factor 11 mRNA [3]): 92%

416842 (antisense eT*eG*eA*eG*eA*dT*dT*d[5mC]*dT*dT*dT*dG*dG*dG*d[5mC]*e[5mC]*eA*eT*eT*e[5mC]) [compound 416842]
% inhibition (human Factor 11 mRNA [1]; HepG2 cells, lipofectin, gapmers targeted to nucleobases 1062 to 1091 of SEQ ID NO: 1): 94% | IC50 (human Factor 11 mRNA [2]): 31 nM | percent inhibition of Factor 11 at 9.375 nM (human Factor 11 mRNA [2]): 18% | percent inhibition of Factor 11 at 18.75 nM (human Factor 11 mRNA [2]): 33% | percent inhibition of Factor 11 at 37.5 nM (human Factor 11 mRNA [2]): 62% | percent inhibition of Factor 11 at 75 nM (human Factor 11 mRNA [2]): 71% | IC50 (human Factor 11 mRNA [3]): 5000 nM | percent inhibition of Factor 11 at 0.7 μM (human Factor 11 mRNA [3]): 0% | percent inhibition of Factor 11 at 2.2 μM (human Factor 11 mRNA [3]): 10% | percent inhibition of Factor 11 at 6.7 μM (human Factor 11 mRNA [3]): 66% | percent inhibition of Factor 11 at 20 μM (human Factor 11 mRNA [3]): 92%

416878 (antisense eG*eG*eT*d[5mC]*d[5mC]*dA*d[5mC]*dA*dT*dA*dA*dA*dT*dG*dT*d[5mC]*dT*eT*eT*eG) [compound 416878]
% inhibition (human Factor 11 mRNA [1]; [4]): 95% | IC50 (human Factor 11 mRNA [2]): 27 nM | percent inhibition of Factor 11 at 9.375 nM (human Factor 11 mRNA [2]): 22% | percent inhibition of Factor 11 at 18.75 nM (human Factor 11 mRNA [2]): 34% | percent inhibition of Factor 11 at 37.5 nM (human Factor 11 mRNA [2]): 60% | percent inhibition of Factor 11 at 75 nM (human Factor 11 mRNA [2]): 82% | IC50 (human Factor 11 mRNA [3]): 4300 nM | percent inhibition of Factor 11 at 0.7 μM (human Factor 11 mRNA [3]): 1% | percent inhibition of Factor 11 at 2.2 μM (human Factor 11 mRNA [3]): 26% | percent inhibition of Factor 11 at 6.7 μM (human Factor 11 mRNA [3]): 75% | percent inhibition of Factor 11 at 20 μM (human Factor 11 mRNA [3]): 85%

416895 (antisense eT*eA*eT*dG*d[5mC]*d[5mC]*d[5mC]*dT*dT*d[5mC]*dA*dT*dG*dT*d[5mC]*dT*dA*eG*eG*eT) [compound 416895]
% inhibition (human Factor 11 mRNA [1]; [4]): 95% | IC50 (human Factor 11 mRNA [2]): 15 nM | percent inhibition of Factor 11 at 9.375 nM (human Factor 11 mRNA [2]): 39% | percent inhibition of Factor 11 at 18.75 nM (human Factor 11 mRNA [2]): 57% | percent inhibition of Factor 11 at 37.5 nM (human Factor 11 mRNA [2]): 66% | percent inhibition of Factor 11 at 75 nM (human Factor 11 mRNA [2]): 71% | IC50 (human Factor 11 mRNA [3]): 3000 nM | percent inhibition of Factor 11 at 0.7 μM (human Factor 11 mRNA [3]): 0% | percent inhibition of Factor 11 at 2.2 μM (human Factor 11 mRNA [3]): 62% | percent inhibition of Factor 11 at 6.7 μM (human Factor 11 mRNA [3]): 70% | percent inhibition of Factor 11 at 20 μM (human Factor 11 mRNA [3]): 91%

416896 (antisense eT*eT*eA*dT*dG*d[5mC]*d[5mC]*d[5mC]*dT*dT*d[5mC]*dA*dT*dG*dT*d[5mC]*dT*eA*eG*eG) [compound 416896]
% inhibition (human Factor 11 mRNA [1]; [4]): 95% | IC50 (human Factor 11 mRNA [2]): 27 nM | percent inhibition of Factor 11 at 9.375 nM (human Factor 11 mRNA [2]): 22% | percent inhibition of Factor 11 at 18.75 nM (human Factor 11 mRNA [2]): 39% | percent inhibition of Factor 11 at 37.5 nM (human Factor 11 mRNA [2]): 57% | percent inhibition of Factor 11 at 75 nM (human Factor 11 mRNA [2]): 81% | IC50 (human Factor 11 mRNA [3]): 3200 nM | percent inhibition of Factor 11 at 0.7 μM (human Factor 11 mRNA [3]): 12% | percent inhibition of Factor 11 at 2.2 μM (human Factor 11 mRNA [3]): 35% | percent inhibition of Factor 11 at 6.7 μM (human Factor 11 mRNA [3]): 81% | percent inhibition of Factor 11 at 20 μM (human Factor 11 mRNA [3]): 89%

416997 (antisense eA*e[5mC]*dA*dG*dT*dT*dT*d[5mC]*dT*dG*dG*d[5mC]*dA*dG*dG*e[5mC]*e[5mC]*eT*e[5mC]*eG) [compound 416997]
% inhibition (human Factor 11 mRNA [1]; [5]): 84%

416998 (antisense e[5mC]*eA*d[5mC]*dA*dG*dT*dT*dT*d[5mC]*dT*dG*dG*d[5mC]*dA*dG*eG*e[5mC]*e[5mC]*eT*e[5mC]) [compound 416998]
% inhibition (human Factor 11 mRNA [1]; [5]): 88%

417001 (antisense eG*eT*dG*d[5mC]*dA*d[5mC]*dA*dG*dT*dT*dT*d[5mC]*dT*dG*dG*e[5mC]*eA*eG*eG*e[5mC]) [compound 417001]
% inhibition (human Factor 11 mRNA [1]; [5]): 83%

417004 (antisense eT*eT*dG*dG*dT*dG*d[5mC]*dA*d[5mC]*dA*dG*dT*dT*dT*d[5mC]*eT*eG*eG*e[5mC]*eA) [compound 417004]
% inhibition (human Factor 11 mRNA [1]; [5]): 86%

417005 (antisense eA*eT*dT*dG*dG*dT*dG*d[5mC]*dA*d[5mC]*dA*dG*dT*dT*dT*e[5mC]*eT*eG*eG*e[5mC]) [compound 417005]
% inhibition (human Factor 11 mRNA [1]; [5]): 79%

417006 (antisense e[5mC]*eA*dT*dT*dG*dG*dT*dG*d[5mC]*dA*d[5mC]*dA*dG*dT*dT*eT*e[5mC]*eT*eG*eG) [compound 417006]
% inhibition (human Factor 11 mRNA [1]; [5]): 81%

417007 (antisense eG*e[5mC]*dA*dT*dT*dG*dG*dT*dG*d[5mC]*dA*d[5mC]*dA*dG*dT*eT*eT*e[5mC]*eT*eG) [compound 417007]
% inhibition (human Factor 11 mRNA [1]; [5]): 82%

417008 (antisense eG*eG*d[5mC]*dA*dT*dT*dG*dG*dT*dG*d[5mC]*dA*d[5mC]*dA*dG*eT*eT*eT*e[5mC]*eT) [compound 417008]
% inhibition (human Factor 11 mRNA [1]; [5]): 82%

417009 (antisense e[5mC]*eG*dG*d[5mC]*dA*dT*dT*dG*dG*dT*dG*d[5mC]*dA*d[5mC]*dA*eG*eT*eT*eT*e[5mC]) [compound 417009]
% inhibition (human Factor 11 mRNA [1]; [5]): 85%

417010 (antisense eA*e[5mC]*dG*dG*d[5mC]*dA*dT*dT*dG*dG*dT*dG*d[5mC]*dA*d[5mC]*eA*eG*eT*eT*eT) [compound 417010]
% inhibition (human Factor 11 mRNA [1]; [5]): 81%

417011 (antisense eG*eA*d[5mC]*dG*dG*d[5mC]*dA*dT*dT*dG*dG*dT*dG*d[5mC]*dA*e[5mC]*eA*eG*eT*eT) [compound 417011]
% inhibition (human Factor 11 mRNA [1]; [5]): 86%

417012 (antisense eG*eG*dA*d[5mC]*dG*dG*d[5mC]*dA*dT*dT*dG*dG*dT*dG*d[5mC]*eA*e[5mC]*eA*eG*eT) [compound 417012]
% inhibition (human Factor 11 mRNA [1]; [5]): 72%

417013 (antisense e[5mC]*eG*dG*dA*d[5mC]*dG*dG*d[5mC]*dA*dT*dT*dG*dG*dT*dG*e[5mC]*eA*e[5mC]*eA*eG) [compound 417013]
% inhibition (human Factor 11 mRNA [1]; [5]): 86%

417014 (antisense eG*e[5mC]*dG*dG*dA*d[5mC]*dG*dG*d[5mC]*dA*dT*dT*dG*dG*dT*eG*e[5mC]*eA*e[5mC]*eA) [compound 417014]
% inhibition (human Factor 11 mRNA [1]; [5]): 87%

417015 (antisense eA*eG*d[5mC]*dG*dG*dA*d[5mC]*dG*dG*d[5mC]*dA*dT*dT*dG*dG*eT*eG*e[5mC]*eA*e[5mC]) [compound 417015]
% inhibition (human Factor 11 mRNA [1]; [5]): 87%

417016 (antisense e[5mC]*eA*dG*d[5mC]*dG*dG*dA*d[5mC]*dG*dG*d[5mC]*dA*dT*dT*dG*eG*eT*eG*e[5mC]*eA) [compound 417016]
% inhibition (human Factor 11 mRNA [1]; [5]): 85%

417017 (antisense eG*e[5mC]*dA*dG*d[5mC]*dG*dG*dA*d[5mC]*dG*dG*d[5mC]*dA*dT*dT*eG*eG*eT*eG*e[5mC]) [compound 417017]
% inhibition (human Factor 11 mRNA [1]; [5]): 82%

417018 (antisense eG*eG*d[5mC]*dA*dG*d[5mC]*dG*dG*dA*d[5mC]*dG*dG*d[5mC]*dA*dT*eT*eG*eG*eT*eG) [compound 417018]
% inhibition (human Factor 11 mRNA [1]; [5]): 82%

417019 (antisense eT*eG*dG*d[5mC]*dA*dG*d[5mC]*dG*dG*dA*d[5mC]*dG*dG*d[5mC]*dA*eT*eT*eG*eG*eT) [compound 417019]
% inhibition (human Factor 11 mRNA [1]; [5]): 84%

417020 (antisense e[5mC]*eT*dG*dG*d[5mC]*dA*dG*d[5mC]*dG*dG*dA*d[5mC]*dG*dG*d[5mC]*eA*eT*eT*eG*eG) [compound 417020]
% inhibition (human Factor 11 mRNA [1]; [5]): 84%

417021 (antisense eA*e[5mC]*dT*dG*dG*d[5mC]*dA*dG*d[5mC]*dG*dG*dA*d[5mC]*dG*dG*e[5mC]*eA*eT*eT*eG) [compound 417021]
% inhibition (human Factor 11 mRNA [1]; [5]): 74%
